# Measured values: patent publication US20250026762A1, “FUSED PYRAZOLE UREA ANALOGS AS GLUCOSYLCERAMIDE SYNTHASE INHIBITORS” (Merck Sharp & Dohme LLC, priority 2021, published 2025)
# Biological target: glucosylceramide synthase (GCS) enzyme in Golgi preparations from human A375 malignant melanoma skin cells (Homo sapiens (Human), UniProt Q16739)
# Assay: UDP-Glo glucosylceramide synthase biochemical assay
# Conditions: 1.5 μg crude golgi preparation; C6 ceramide and UDP-glucose at 2×Km; 20 h incubation at room temperature; luminescence
# From the text: UDP-Glo™ Glucosylceramide Synthase Biochemical Assay
# A UDP-Glo™ glucosylceramide synthase biochemical assay was utilized to evaluate the effect of test compounds on the activity of endogenous levels of GCS enzyme contained within Golgi preparations isolated from human A375 malignant melanoma skin cells. The UDP-Glo™ glucosylceramide synthase assay uses UDP-Glucose as a nucleotide-glycosyl donor and ceramide as substrate acceptor molecules. In the reaction, glucosylceramide synthase (GCS) transfers glucose from UDP-Glucose to ceramide. Glucosylceramide and UDP are released as products.
# Using Promega's UDP-Glo™ Glycosyltransferase assay kit (Promega Corporation, Madison, WI, USA (Promega)), GCS activity was indirectly measured by detecting the amount of UDP produced. An aliquot of GCS enzyme (1.5 μg crude golgi preparation, total protein) and titrated test compound were aliquoted to each well and incubated for 30 minutes at room temperature. Substrate mixture was prepared by mixing C6 ceramide (Avanti Polar Lipids, Alabaster, AL USA (Avanti)) (micelles prepared at 0.6 mM in 0.6 mM DOPC) and UDP-glucose (20 μM; Promega), at concentrations equivalent to 2×Km, in assay buffer (25 mM HEPES (pH 7.5), 50 mM KCl, 5 mM MgCl2). An equivalent volume of substrate mixture was then added to each well. Following a 20 h incubation at room temperature to allow for GCS turnover of substrate, an equal volume of UDP detection reagent (Promega) was added to each well and incubated for an additional 75 minutes at room temperature to simultaneously convert the accumulated UDP product into ATP and generate light in a luciferase reaction. The generated light was detected using a luminometer. […] luminescence values (RLUs) were normalized to mean “min” and “max” effects, as determined on each plate. “Min” was defined as the mean of the values of the wells treated with vehicle (DMSO) and which represent 0% inhibition; “max” was defined as the mean of the values of the wells treated with a reference inhibitor and which represent the 100% effect. Values for % Emax and EC50 were determined by best-fitting the normalized data to a curve in Activity Base along a four-parameter logistic nonlinear regression (4PL) model (based on the Levenberg-Marquardt algorithm and defined by the equation below): […]
# where: n is 4PMin (bottom of the curve); m is 4PMax (top of the curve); i is IP (inflection point of curve); andp is slope. See Levenberg, K., “A Method for the Solution of Certain Problems in Least Squares”, Quart. Appl. Math. 2, (1944), pp 164-168 and Marquardt, D., “An Algorithm for Least Squares Estimation on Nonlinear Parameters”, SIAM J. Appl. Math. 11, (1963) pp 431-441.
# glucosylceramide synthase (GCS) enzyme in Golgi preparations from human A375 malignant melanoma skin cells, sequence (Q16739 whole entry): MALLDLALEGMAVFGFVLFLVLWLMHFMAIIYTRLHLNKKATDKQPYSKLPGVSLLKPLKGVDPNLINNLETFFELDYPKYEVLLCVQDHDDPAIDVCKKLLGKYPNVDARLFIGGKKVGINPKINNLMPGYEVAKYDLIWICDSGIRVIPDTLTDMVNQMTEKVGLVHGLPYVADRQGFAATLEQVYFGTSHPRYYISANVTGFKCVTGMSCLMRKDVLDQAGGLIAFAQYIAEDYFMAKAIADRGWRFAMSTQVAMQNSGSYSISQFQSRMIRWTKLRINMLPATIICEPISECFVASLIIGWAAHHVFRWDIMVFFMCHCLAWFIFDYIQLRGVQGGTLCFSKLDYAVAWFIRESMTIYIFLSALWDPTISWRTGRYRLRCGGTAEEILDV
row,SMILES,EC50 [nM]
1,"O=C(N1CCN2CCC1CC2)n1nc(-c2cc(Cl)ccc2F)c2c1COCC2 [Compound 29, (1,4-diazabicyclo[3.2.2]nonan-4-yl)(3-(5-chloro-2-fluorophenyl)-4,7-dihydropyrano[3,4-c]pyrazol-1(5H)-yl)methanone]",3.8
2,"O=C(N1CCN2CCC1CC2)n1nc(-c2ccc(C(F)(F)F)cc2)c2c1COCC2 [Compound 30, (1,4-diazabicyclo[3.2.2]nonan-4-yl)(3-(4-(trifluoromethyl)phenyl)-4,7-dihydropyrano[3,4-c]pyrazol-1(5H)-yl)methanone]",2.7
3,"Cc1ccc(-c2nn(C(=O)N3CCN4CCC3CC4)c3c2CCC3)cc1 [Compound 31, 1,4-diazabicyclo[3.2.2]nonan-4-yl-[3-(p-tolyl)-5,6-dihydro-4H-cyclopenta[c]pyrazol-1-yl]methanone]",0.2
4,"COc1ncc(-c2nn(C(=O)N3CCN4CCC3CC4)c3c2CCOC3)cc1Cl [Compound 32, (1,4-diazabicyclo[3.2.2]nonan-4-yl)(3-(5-chloro-6-methoxypyridin-3-yl)-4,7-dihydropyrano[3,4-c]pyrazol-1(5H)-yl)methanone]",7.6
5,"Cn1nc(C(F)(F)F)cc1-c1nn(C(=O)N2CCN3CCC2CC3)c2c1CCC2 [Compound 33, 1,4-diazabicyclo[3.2.2]nonan-4-yl-[3-[2-methyl-5-(trifluoromethyl)pyrazol-3-yl]-5,6-dihydro-4H-cyclopenta[c]pyrazol-1-yl]methanone]",5.9
6,"COc1nccc(-c2nn(C(=O)N3CCN4CCC3CC4)c3c2CCOC3)c1Cl [Compound 34, (1,4-diazabicyclo[3.2.2]nonan-4-yl)(3-(3-chloro-2-methoxypyridin-4-yl)-4,7-dihydropyrano[3,4-c]pyrazol-1(5H)-yl)methanone]",15.3
7,"O=C(N1CCN2CCC1CC2)n1nc(C2=CCC(F)(F)CC2)c2c1COCC2 [Compound 35, (1,4-diazabicyclo[3.2.2]nonan-4-yl)(3-(4,4-difluorocyclohex-1-en-1-yl)-4,7-dihydropyrano[3,4-c]pyrazol-1(5H)-yl)methanone]",38.5
8,"O=C(N1CCN2CCC1CC2)n1nc(-c2ccc(F)c(Cl)c2)c2c1CCOC2 [Compound 36, (1,4-diazabicyclo[3.2.2]nonan-4-yl)(3-(3-chloro-4-fluorophenyl)-6,7-dihydropyrano[4,3-c]pyrazol-1(4H)-yl)methanone]",0.3
9,"O=C(N1CCN2CCC1CC2)n1nc(C2=CCCC2)c2c1CCC2 [Compound 37, [3-(cyclopenten-1-yl)-5,6-dihydro-4H-cyclopenta[c]pyrazol-1-yl]-(1,4-diazabicyclo[3.2.2]nonan-4-yl)methanone]",3.6
10,"COc1c(F)cccc1-c1nn(C(=O)N2CCN3CCC2CC3)c2c1CCC2 [Compound 38, 1,4-diazabicyclo[3.2.2]nonan-4-yl-[3-(3-fluoro-2-methoxy-phenyl)-5,6-dihydro-4H-cyclopenta[c]pyrazol-1-yl]methanone]",0.6
11,"Cc1cccc(-c2nn(C(=O)N3CCN4CCC3CC4)c3c2COCC3)c1F [Compound 39, (1,4-diazabicyclo[3.2.2]nonan-4-yl)(3-(2-fluoro-3-methylphenyl)-6,7-dihydropyrano[4,3-c]pyrazol-1(4H)-yl)methanone]",0.3
12,"COc1nccc(-c2nn(C(=O)N3CCN4CCC3CC4)c3c2CCC3)c1Cl [Compound 40, [3-(3-chloro-2-methoxy-4-pyridyl)-5,6-dihydro-4H-cyclopenta[c]pyrazol-1-yl]-(1,4-diazabicyclo[3.2.2]nonan-4-yl)methanone]",1.2
13,"COc1cccc(-c2nn(C(=O)N3CCN4CCC3CC4)c3c2CCC3)c1F [Compound 41, 1,4-diazabicyclo[3.2.2]nonan-4-yl-[3-(2-fluoro-3-methoxy-phenyl)-5,6-dihydro-4H-cyclopenta[c]pyrazol-1-yl]methanone]",0.5
14,"O=C(N1CCN2CCC1CC2)n1nc(-c2ccc(F)c(F)c2F)c2c1CCOC2 [Compound 42, (1,4-diazabicyclo[3.2.2]nonan-4-yl)(3-(2,3,4-trifluorophenyl)-6,7-dihydropyrano[4,3-c]pyrazol-1(4H)-yl)methanone]",0.9
15,"O=C(N1CCN2CCC1CC2)n1nc(-c2ccc3c(c2)CCO3)c2c1CCC2 [Compound 43, 1,4-diazabicyclo[3.2.2]nonan-4-yl-[3-(2,3-dihydrobenzofuran-5-yl)-5,6-dihydro-4H-cyclopenta[c]pyrazol-1-yl]methanone]",0.5
16,"COc1ccc(F)c(-c2nn(C(=O)N3CCN4CCC3CC4)c3c2CCC3)c1 [Compound 44, 1,4-diazabicyclo[3.2.2]nonan-4-yl-[3-(2-fluoro-5-methoxy-phenyl)-5,6-dihydro-4H-cyclopenta[c]pyrazol-1-yl]methanone]",1.7
17,"O=C(N1CCN2CCC1CC2)n1nc(-c2cc(F)c(F)cc2F)c2c1CCOC2 [Compound 45, (1,4-diazabicyclo[3.2.2]nonan-4-yl)(3-(2,4,5-trifluorophenyl)-6,7-dihydropyrano[4,3-c]pyrazol-1(4H)-yl)methanone]",2.3
18,"O=C(N1CCN2CCC1CC2)n1nc(-c2cc(F)c(F)c(F)c2)c2c1CCOC2 [Compound 46, (1,4-diazabicyclo[3.2.2]nonan-4-yl)(3-(3,4,5-trifluorophenyl)-6,7-dihydropyrano[4,3-c]pyrazol-1(4H)-yl)methanone]",4.6
19,"COc1ncc(-c2nn(C(=O)N3CCN4CCC3CC4)c3c2COCC3)cc1Cl [Compound 47, (1,4-diazabicyclo[3.2.2]nonan-4-yl)(3-(5-chloro-6-methoxypyridin-3-yl)-6,7-dihydropyrano[4,3-c]pyrazol-1(4H)-yl)methanone]",8.3
20,"O=C(N1CCN2CCC1CC2)n1nc(-c2ccc(Cl)cn2)c2c1CCOC2 [Compound 48, (1,4-diazabicyclo[3.2.2]nonan-4-yl)(3-(5-chloropyridin-2-yl)-6,7-dihydropyrano[4,3-c]pyrazol-1(4H)-yl)methanone]",2
21,"O=C(N1CCN2CCC1CC2)n1nc(-c2cc(Cl)c(F)cn2)c2c1COCC2 [Compound 49, (1,4-diazabicyclo[3.2.2]nonan-4-yl)(3-(4-chloro-5-fluoropyridin-2-yl)-4,7-dihydropyrano[3,4-c]pyrazol-1(5H)-yl)methanone]",8.3
22,"O=C(N1CCN2CCC1CC2)n1nc(-c2ccc(F)c(Cl)c2)c2c1COC2 [Compound 50, (1,4-diazabicyclo[3.2.2]nonan-4-yl)(3-(3-chloro-4-fluorophenyl)-4,6-dihydro-1H-furo[3,4-c]pyrazol-1-yl)methanone]",14.9
23,"O=C(N1CCN2CCC1CC2)n1nc(N2CCC(F)(F)CC2)c2c1CCC2 [Compound 51, (1,4-diazabicyclo[3.2.2]nonan-4-yl)(3-(4,4-difluoropiperidin-1-yl)-5,6-dihydrocyclopenta[c]pyrazol-1(4H)-yl)methanone]",7
24,"O=C(N1CCN2CCC1CC2)n1nc(N2CCC3(CC2)CC3)c2c1COCC2 [Compound 52, (3-(6-azaspiro[2.5]octan-6-yl)-4,7-dihydropyrano[3,4-c]pyrazol-1(5H)-yl)(1,4-diazabicyclo[3.2.2]nonan-4-yl)methanone]",18.3
25,"O=C(N1CCN2CCC1CC2)n1nc(-n2cc(C(F)(F)F)cn2)c2c1COCC2 [Compound 53, (1,4-diazabicyclo[3.2.2]nonan-4-yl)(3-(4-(trifluoromethyl)-1H-pyrazol-1-yl)-4,7-dihydropyrano[3,4-c]pyrazol-1(5H)-yl)methanone]",4.1
